Where two headings read alike, the source gives them in different places.
What was measured:
Type in all cases: biochemical
Btk = target: T1, Btk (Homo sapiens, UniProt Q06187); assay: Btk in vitro inhibitory activity (one of Method A TR-FRET, Method B electrophoretic mobility shift, Method C radiometric filter binding)
T1 construct: purified from insect cells as a full-length construct containing a N-terminal 6X-His tag; His6 (N); made in house; host or cells: insect cells (Method C)
How it was run: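 Three alternative formats were used. A radiometric filter-binding read used 8 nM full-length His-BTK with 0.2 mg/mL poly(Glu-Tyr) 4:1 (C); microfluidic separation of 1 μM FAM-peptide by 1 nM BTK gave IC50 from 12-point curves (B); TR-FRET at Km ATP, 0.5 nM Btk, gave Ki(app)-derived IC50 (A).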

TEC = target: T2, TEC (Homo sapiens, UniProt P42680); assay: Inhibition of a panel of kinases (in vitro HotSpot kinase assay, 33P-ATP, 1 μM ATP); details: for IC50: HotSpot kinase assay, 1 μM ATP; for TEC/Btk: ratio of TEC IC50 to Btk IC50 (selectivity)
T2 sequence (P42680 1-631): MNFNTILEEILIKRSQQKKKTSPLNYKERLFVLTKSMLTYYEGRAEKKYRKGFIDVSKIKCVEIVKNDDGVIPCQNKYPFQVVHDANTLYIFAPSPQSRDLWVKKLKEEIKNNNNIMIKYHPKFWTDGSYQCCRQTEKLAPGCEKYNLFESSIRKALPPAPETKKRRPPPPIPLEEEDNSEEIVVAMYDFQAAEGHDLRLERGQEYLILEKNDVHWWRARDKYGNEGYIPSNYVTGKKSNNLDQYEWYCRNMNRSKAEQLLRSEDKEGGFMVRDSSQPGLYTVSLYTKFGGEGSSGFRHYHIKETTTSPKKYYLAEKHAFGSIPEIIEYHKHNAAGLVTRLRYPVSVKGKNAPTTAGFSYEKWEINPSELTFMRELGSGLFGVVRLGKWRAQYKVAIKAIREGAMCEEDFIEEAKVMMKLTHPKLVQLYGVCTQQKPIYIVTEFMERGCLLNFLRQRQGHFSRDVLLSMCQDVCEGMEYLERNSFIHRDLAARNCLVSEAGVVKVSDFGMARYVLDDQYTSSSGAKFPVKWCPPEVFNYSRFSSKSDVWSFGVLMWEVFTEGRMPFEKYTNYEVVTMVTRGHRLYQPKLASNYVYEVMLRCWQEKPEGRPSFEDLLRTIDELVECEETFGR
How it was run: (§1)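 Radiometric read-out: 33P transfer to a suitable substrate by each purified enzyme, ATP at 1 μM. Values are degree of inhibition.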

panel of kinases = target: T3, panel of kinases (Homo sapiens, UniProt P51813); assay: Inhibition of a panel of kinases (in vitro HotSpot kinase assay, 33P-ATP, 1 μM ATP), other kinases; details: BMX wild-type, read-out: BMX-WT IC50
T3 sequence (P51813 1-675): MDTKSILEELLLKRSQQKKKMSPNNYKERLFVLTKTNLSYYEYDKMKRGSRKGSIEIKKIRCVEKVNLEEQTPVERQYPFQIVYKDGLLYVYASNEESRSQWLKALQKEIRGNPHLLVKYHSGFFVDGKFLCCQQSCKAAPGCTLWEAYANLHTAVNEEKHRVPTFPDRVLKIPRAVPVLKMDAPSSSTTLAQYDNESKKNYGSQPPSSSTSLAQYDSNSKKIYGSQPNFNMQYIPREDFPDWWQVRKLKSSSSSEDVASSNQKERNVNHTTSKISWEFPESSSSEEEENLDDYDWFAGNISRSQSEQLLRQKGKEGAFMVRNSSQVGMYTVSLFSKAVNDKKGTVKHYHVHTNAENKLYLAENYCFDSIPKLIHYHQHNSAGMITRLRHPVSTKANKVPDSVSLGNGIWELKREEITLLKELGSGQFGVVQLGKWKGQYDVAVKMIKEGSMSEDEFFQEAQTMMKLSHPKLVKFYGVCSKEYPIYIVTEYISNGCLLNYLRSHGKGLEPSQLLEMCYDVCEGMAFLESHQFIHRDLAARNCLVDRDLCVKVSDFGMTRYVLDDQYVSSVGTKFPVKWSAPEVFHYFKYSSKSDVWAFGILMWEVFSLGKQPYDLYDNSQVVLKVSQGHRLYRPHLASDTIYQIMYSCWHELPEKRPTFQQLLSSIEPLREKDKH
How it was run: as §1

[1] = method is one of A, B or C, not stated which, read-out: IC50 values against Btk
[2] = wild-type Btk, read-out: Btk-WT IC50

T1 sequence (Q06187 whole entry): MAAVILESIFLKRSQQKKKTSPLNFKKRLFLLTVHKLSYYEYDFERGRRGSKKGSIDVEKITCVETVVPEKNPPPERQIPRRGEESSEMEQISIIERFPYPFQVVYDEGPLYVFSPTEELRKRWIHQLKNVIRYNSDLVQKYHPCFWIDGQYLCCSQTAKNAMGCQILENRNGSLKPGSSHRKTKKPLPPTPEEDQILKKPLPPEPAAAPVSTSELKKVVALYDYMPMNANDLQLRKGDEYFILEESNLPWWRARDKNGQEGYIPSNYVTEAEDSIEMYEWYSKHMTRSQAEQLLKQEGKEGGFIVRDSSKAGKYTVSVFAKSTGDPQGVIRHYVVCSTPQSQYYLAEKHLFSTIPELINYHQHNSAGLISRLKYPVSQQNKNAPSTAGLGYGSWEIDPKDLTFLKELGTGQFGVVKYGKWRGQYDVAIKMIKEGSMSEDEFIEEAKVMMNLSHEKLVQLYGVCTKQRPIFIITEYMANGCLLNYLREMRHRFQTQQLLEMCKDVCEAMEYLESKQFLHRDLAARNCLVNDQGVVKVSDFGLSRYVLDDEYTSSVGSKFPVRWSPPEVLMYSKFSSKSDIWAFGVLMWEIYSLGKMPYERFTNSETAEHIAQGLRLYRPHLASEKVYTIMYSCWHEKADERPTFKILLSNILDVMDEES

Row | SMILES | IC50 (Btk; [1]) [nM] | IC50 (Btk; [2]) [nM] | IC50 (TEC) [nM] | TEC/Btk (TEC) | IC50 (panel of kinases) [nM]
1 | CC(C)(C)c1noc(C(=O)NCc2ccc(-c3ccnc4[nH]nc(N5CC[C@H](N)C5)c34)cc2F)n1 [Example 159, N-[(4-{3-[(3S)-3-aminopyrrolidin-1-yl]-1H-pyrazolo[3,4-b]pyridin-4-yl}-2-fluorophenyl)methyl]-3-tert-butyl-1,2,4-oxadiazole-5-carboxamide] | < 10 | 1.45 | 591 | 408 | 1820
2 | C=CC(=O)N1CC[C@@H](Nc2n[nH]c3nccc(-c4cccc(NC(=O)c5noc(C(C)(C)C)n5)c4CO)c23)C1 [Example 160, 5-tert-butyl-N-[2-(hydroxymethyl)-3-(3-{[(3R)-1-(prop-2-enoyl)pyrrolidin-3-yl]amino}-1H-pyrazolo[3,4-b]pyridin-4-yl)phenyl]-1,2,4-oxadiazole-3-carboxamide] |  | 37.3 | 922 | 25 | 444
3 | CC(=O)N1CC[C@H](Nc2n[nH]c3nccc(-c4ccc(CNC(=O)c5nc(C(C)(C)C)no5)c(F)c4)c23)C1 [Example 164, N-{[4-(3-{[(3S)-1-acetylpyrrolidin-3-yl]amino}-1H-pyrazolo[3,4-b]pyridin-4-yl)-2-fluorophenyl]methyl}-3-tert-butyl-1,2,4-oxadiazole-5-carboxamide] |  | 11.3 | 8070 | 714 | 8340
4 | CC(C)(C)c1nc(C(=O)Nc2cccc(-c3ccnc4[nH]nc(N[C@@H]5CCNC5)c34)c2CO)no1 [Example 165, t-tert-butyl-N-[2-(hydroxymethyl)-3-(3-{[(3R)-pyrrolidin-3-yl]amino}-1H-pyrazolo[3,4-b]pyridin-4-yl)phenyl]-1,2,4-oxadiazole-3-carboxamide] |  | > 10000 | > 10000 | >100 | > 10000
5 | CN1CC[C@H](Nc2n[nH]c3nccc(-c4ccc(CNC(=O)c5nc(C(C)(C)C)no5)c(F)c4)c23)C1 [Example 166, 3-tert-butyl-N-{[2-fluoro-4-(3-{[(3S)-1-methylpyrrolidin-3-yl]amino}-1H-pyrazolo[3,4-b]pyridin-4-yl)phenyl]methyl}-1,2,4-oxadiazole-5-carboxamide] | < 10 | 3.12 | > 10000 | >100 | > 10000
6 | CC(=O)N1CCC[C@H](Nc2n[nH]c3nccc(-c4ccc(CNC(=O)c5nc(C(C)(C)C)no5)c(F)c4)c23)C1 [Example 168, N-{[4-(3-{[(3S)-1-acetylpiperidin-3-yl]amino}-1H-pyrazolo[3,4-b]pyridin-4-yl)-2-fluorophenyl]methyl}-3-tert-butyl-1,2,4-oxadiazole-5-carboxamide] |  | 40.3 | > 10000 | >100 | > 10000
7 | C=CC(=O)N1CCC[C@@H](Nc2n[nH]c3nccc(-c4ccc(CNC(=O)c5cc(C(C)C)on5)c(F)c4)c23)[C@H]1C [Example 173, N-{[2-fluoro-4-(3-{[(2R,3R)-2-methyl-1-(prop-2-enoyl)piperidin-3-yl]amino}-1H-pyrazolo[3,4-b]pyridin-4-yl)phenyl]methyl}-5-(propan-2-yl)-1,2-oxazole-3-carboxamide] | < 10 | 0.104 | 9 | 83 | 6
8 | CC(C)(C)c1nc(C(=O)NCc2ccc(-c3ccnc4[nH]nc(N[C@@H]5CCNC5)c34)cc2)no1 [Example 174, 5-tert-butyl-N-{[4-(3-{[(3R)-pyrrolidin-3-yl]amino}-1H-pyrazolo[3,4-b]pyridin-4-yl)phenyl]methyl}-1,2,4-oxadiazole-3-carboxamide] |  | 32.7 | > 10000 | >100 | > 10000

Continued, values first:

Row | IC50 (Btk; [1]) [nM] | IC50 (Btk; [2]) [nM] | IC50 (TEC) [nM] | TEC/Btk (TEC) | IC50 (panel of kinases) [nM] | SMILES
9 | < 10 | 0.57 | 318 | 558 | 275 | C=CC(=O)N1CC[C@@H](Nc2n[nH]c3nccc(-c4cccc(NC(=O)c5ccc(C(C)(C)C)cc5)c4CO)c23)C1 [Example 161, 4-tert-butyl-N-[2-(hydroxymethyl)-3-(3-{[(3R)-1-(prop-2-enoyl)pyrrolidin-3-yl]amino}-1H-pyrazolo[3,4-b]pyridin-4-yl)phenyl]benzamide]
10 | < 10 | 4.5 | 6260 | 1391 | 6050 | CC(C)(C)c1noc(C(=O)NCc2ccc(-c3ccnc4[nH]nc(N[C@H]5CCNC5)c34)cc2F)n1 [Example 162, 3-tert-butyl-N-{[2-fluoro-4-(3-{[(3S)-pyrrolidin-3-yl]amino}-1H-pyraozlo[3,4-b]pyridin-4-yl)phenyl]methyl}-1,2,4-oxadiazole-5-carboxamide]
11 | < 10 | 4.78 | 9450 | 1977 | > 10000 | CC(C)N1CC[C@H](Nc2n[nH]c3nccc(-c4ccc(CNC(=O)c5nc(C(C)(C)C)no5)c(F)c4)c23)C1 [Example 163, 3-tert-butyl-N-{[2-fluoro-4-(3-{[(3S)-1-(propan-2-yl)pyrrolidin-3-yl]amino}-1H-pyrazolo[3,4-b]pyridin-4-yl)phenyl]methyl}-1,2,4-oxadiazole-5-carboxamide]
12 |  | 10.7 | > 10000 | >100 | > 10000 | CC(C)(C)c1noc(C(=O)NCc2ccc(-c3ccnc4[nH]nc(N[C@H]5CCCNC5)c34)cc2F)n1 [Example 167, 3-tert-butyl-N-{[2-fluoro-4-(3-{[(3S)-piperidin-3-yl]amino}-1H-pyrazolo[3,4-b]pyridin-4-yl)phenyl]methyl}-1,2,4-oxadiazole-5-carboxamide]
13 | < 10 | 3.72 | 1750 | 470 | 1820 | C=CC(=O)N1CCC[C@H](Nc2n[nH]c3nccc(-c4ccc(CNC(=O)c5nc(C(C)(C)C)no5)c(F)c4)c23)C1 [Example 169, 3-tert-butyl-N-{[2-fluoro-4-(3-{[(3S)-1-(prop-2-enoyl)piperidin-3-yl]amino}-1H-pyrazolo[3,4-b]pyridin-4-yl)phenyl]methyl}-1,2,4-oxadiazole-5-carboxamide]
14 |  | > 10000 | > 10000 |  | > 10000 | CCc1cc(C(=O)NCc2ccc(-c3ccnc4[nH]nc(N[C@@H]5CCCN[C@@H]5C)c34)cc2F)no1 [Example 170, 5-ethyl-N-{[2-fluoro-4-(3-{[(2R,3R)-2-methylpiperidin-3-yl]amino}-1H-pyrazolo[3,4-b]pyridin-4-yl)phenyl]methyl}-1,2-oxazole-3-carboxamide]
15 |  | 559 | > 10000 | >100 | 7790 | CCc1cc(C(=O)NCc2ccc(-c3ccnc4[nH]nc(N[C@@H]5CCCN(C(=O)N(C)C)[C@@H]5C)c34)cc2F)no1 [Example 171, (2R,3R)-3-{[4-(4-{[(5-ethyl-1,2-oxazol-3-yl)formamido]methyl}-3-fluorophenyl)-1H-pyrazolo[3,4-b]pyridin-3-yl]amino}-N,N,2-trimethylpiperidine-1-carboxamide]
16 |  | 436 | > 10000 | >100 | > 10000 | CC(C)c1cc(C(=O)NCc2ccc(-c3ccnc4[nH]nc(N[C@@H]5CCCN[C@@H]5C)c34)cc2F)no1 [Example 172, N-{[2-fluoro-4-(3-{[(2R,3R)-2-methylpiperidin-3-yl]amino}-1H-pyrazolo[3,4-b]pyridin-4-yl)phenyl]methyl}-5-(propan-2-yl)-1,2-oxazole-3-carboxamide]

— patent US20180194762A1 (Pharmacyclics LLC, priority 2017, published 2018)
